Literature values in patent publication US7279573B2, “Amide derivatives” (Kaken Pharmaceutical Co., Ltd., priority 1997, dated 2007).

Key:
growth hormone releasing = settings: control compounds for pharmacophore development
[1] = human, in vivo

| Molecule | growth hormone releasing activity (active/inactive) (growth hormone releasing) | oral bioavailability [1] [%] |
| --- | --- | --- |
| CC(C)(N)CC(=O)N[C@H]1CCc2ccccc2N(Cc2ccc(-c3ccccc3-c3nn[nH]n3)cc2)C1=O [L-692,428] | inactive |  |
| GHRP-6 |  | 0.3 |
